Reference: PubChem BioAssay (NCI)
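Test compounds were applied to cells in 96-well plates for 48 hours at 5 doses. Definition used: TGI = concentration required for complete inhibition of growth.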

Columns and labels:
Assay in all cases: growth of human tumour cells (NCI), 48 h
OVCAR-4 ovarian = tested on: OVCAR-4 ovarian
DU-145 prostate = tested on: DU-145 prostate
SF-539 CNS = tested on: SF-539 CNS
SN12C renal = tested on: SN12C renal
SK-MEL-5 melanoma = tested on: SK-MEL-5 melanoma
SNB-75 CNS = tested on: SNB-75 CNS
SK-MEL-28 melanoma = tested on: SK-MEL-28 melanoma
UACC-257 melanoma = tested on: UACC-257 melanoma
HT29 colon = tested on: HT29 colon
RPMI-8226 leukemia = tested on: RPMI-8226 leukemia

For `CC(C)C(C/C=C1/CC(CO)(COC(=O)CC(C(C)C)C(C)C)OC1=O)C(C)C` (configuration not stated), the TGI (OVCAR-4 ovarian) was 31.8 µM, the TGI (DU-145 prostate) was 26.3 µM and the TGI (SF-539 CNS) was 23.8 µM. For the same compound, the TGI (SN12C renal) was 31.9 µM, the TGI (SK-MEL-5 melanoma) was 22.3 µM and the TGI (SNB-75 CNS) was 18.8 µM. The TGI (SK-MEL-28 melanoma) was 27.7 µM, the TGI (UACC-257 melanoma) was 30.3 µM and the TGI (HT29 colon) was 30.5 µM.
`CCC1CC2CN3CCc4c([nH]c5c(-c6c(OC)ccc7c8c([nH]c67)[C@]6(C(=O)OC)CC7CC(CC)C6N(CC8)C7)c(O)ccc45)[C@](C(=O)OC)(C2)C13` (some centres not stated) showed a TGI (DU-145 prostate) of 28.4 µM, a TGI (SF-539 CNS) of 39.7 µM and a TGI (SK-MEL-5 melanoma) of 27.4 µM. The TGI (SNB-75 CNS) was 48.8 µM, the TGI (SK-MEL-28 melanoma) was 29.9 µM and the TGI (UACC-257 melanoma) was 47.2 µM. The TGI (HT29 colon) was 18.6 µM.
`O=C(Cn1nc(Br)c(Br)c1Br)c1ccccc1` showed a TGI (OVCAR-4 ovarian) of over 100 µM, a TGI (DU-145 prostate) of over 100 µM and a TGI (SF-539 CNS) of 45.1 µM. It also gave a TGI (SN12C renal) of over 100 µM, a TGI (SK-MEL-5 melanoma) of 34.5 µM and a TGI (SNB-75 CNS) of 63.8 µM. It also gave a TGI (SK-MEL-28 melanoma) of over 100 µM, a TGI (UACC-257 melanoma) of 63.5 µM and a TGI (HT29 colon) of 43.5 µM.
`CN(C)CCn1c2ccccc2c2nc3cc4ccccc4cc3nc21` was tested, and the TGI (OVCAR-4 ovarian) was 23.7 µM, the TGI (SN12C renal) was 17.8 µM and the TGI (SK-MEL-5 melanoma) was 26.5 µM. It also gave a TGI (RPMI-8226 leukemia) of 13.2 µM, a TGI (SK-MEL-28 melanoma) of 21.9 µM and a TGI (HT29 colon) of 15 µM.
`CCc1n[nH]c(=O)n1N1C(=O)C2CC=CCC2C1=O` (configuration not stated) gave a TGI (OVCAR-4 ovarian) of over 100 µM, a TGI (SF-539 CNS) of over 100 µM and a TGI (SN12C renal) of over 100 µM. It also gave a TGI (SK-MEL-5 melanoma) of over 100 µM, a TGI (RPMI-8226 leukemia) of over 100 µM and a TGI (SNB-75 CNS) of over 100 µM. The TGI (UACC-257 melanoma) was over 100 µM and the TGI (HT29 colon) was over 100 µM.
Work on `CCCNC(=S)N/N=C/c1cccc(C)n1` yielded a TGI (OVCAR-4 ovarian) of over 100 µM, a TGI (SF-539 CNS) of 62.9 µM and a TGI (SN12C renal) of over 100 µM. It also gave a TGI (SK-MEL-5 melanoma) of over 100 µM, a TGI (RPMI-8226 leukemia) of over 100 µM and a TGI (UACC-257 melanoma) of over 100 µM. The TGI (HT29 colon) was over 100 µM.
`O=c1[nH]c2ccc(CC(=S)N3CCOCC3)cc2s1` showed a TGI (DU-145 prostate) of over 100 µM, a TGI (SF-539 CNS) of over 100 µM and a TGI (SN12C renal) of over 100 µM. For the same compound, the TGI (SK-MEL-5 melanoma) was over 100 µM, the TGI (RPMI-8226 leukemia) was over 100 µM and the TGI (SK-MEL-28 melanoma) was over 100 µM. For the same compound, the TGI (UACC-257 melanoma) was over 100 µM and the TGI (HT29 colon) was over 100 µM.
For `Cc1ccc(C(=O)C(C)N)cc1` (configuration not stated), the TGI (OVCAR-4 ovarian) was over 100 µM, the TGI (SF-539 CNS) was over 100 µM and the TGI (SN12C renal) was over 100 µM. It also gave a TGI (SK-MEL-5 melanoma) of over 100 µM, a TGI (RPMI-8226 leukemia) of over 100 µM and a TGI (SNB-75 CNS) of over 100 µM. The TGI (SK-MEL-28 melanoma) was over 100 µM, the TGI (UACC-257 melanoma) was over 100 µM and the TGI (HT29 colon) was over 100 µM.
In the case of `NNC(=O)CNC(=O)CSc1nnc(COc2ccc(Cl)cc2)n1-c1ccccc1`, the TGI (OVCAR-4 ovarian) is reported as over 100 µM, the TGI (DU-145 prostate) is reported as over 100 µM and the TGI (SF-539 CNS) is reported as over 100 µM. The TGI (SN12C renal) was over 100 µM, the TGI (SNB-75 CNS) was over 100 µM and the TGI (SK-MEL-28 melanoma) was over 100 µM. For the same compound, the TGI (UACC-257 melanoma) was over 100 µM and the TGI (HT29 colon) was over 100 µM.
Compound `CC(=O)OC12c3ccccc3C1CCCCCC21OCCCO1` (configuration not stated) has a TGI (OVCAR-4 ovarian) of over 100 µM, a TGI (SF-539 CNS) of over 100 µM and a TGI (SN12C renal) of over 100 µM. The TGI (SK-MEL-5 melanoma) was over 100 µM, the TGI (RPMI-8226 leukemia) was over 100 µM and the TGI (SNB-75 CNS) was over 100 µM. The TGI (SK-MEL-28 melanoma) was over 100 µM and the TGI (HT29 colon) was over 100 µM.
`N=C(N)SCCc1cn2ccccc2n1` gave a TGI (OVCAR-4 ovarian) of over 100 µM, a TGI (SF-539 CNS) of over 100 µM and a TGI (SN12C renal) of over 100 µM. It also gave a TGI (SK-MEL-5 melanoma) of over 100 µM, a TGI (RPMI-8226 leukemia) of over 100 µM and a TGI (SNB-75 CNS) of over 100 µM. For the same compound, the TGI (SK-MEL-28 melanoma) was over 100 µM, the TGI (UACC-257 melanoma) was over 100 µM and the TGI (HT29 colon) was over 100 µM.
With `COc1ccc(/C=C2\CSC/C(=C\c3ccc(OC)c(OC)c3OC)C2=O)c(OC)c1OC` the TGI (DU-145 prostate) was over 100 µM, the TGI (SF-539 CNS) was 88.6 µM and the TGI (SN12C renal) was 78.2 µM. It also gave a TGI (SK-MEL-5 melanoma) of 88.6 µM, a TGI (RPMI-8226 leukemia) of 67.3 µM and a TGI (SK-MEL-28 melanoma) of over 100 µM. For the same compound, the TGI (UACC-257 melanoma) was over 100 µM and the TGI (HT29 colon) was over 100 µM.
`CCOc1ccccc1/C=C1\NC(=O)N(/C=C2\C(=O)Oc3ccccc3C2=O)C1=O` gave a TGI (OVCAR-4 ovarian) of over 100 µM, a TGI (DU-145 prostate) of over 100 µM and a TGI (SF-539 CNS) of over 100 µM. The TGI (SN12C renal) was over 100 µM, the TGI (SK-MEL-5 melanoma) was 57.9 µM and the TGI (SNB-75 CNS) was over 100 µM. The TGI (SK-MEL-28 melanoma) was over 100 µM, the TGI (UACC-257 melanoma) was over 100 µM and the TGI (HT29 colon) was over 100 µM.
Work on `COC(OC)c1cccc2c1C1(O)CCC3(CC21)OCCCCO3` (configuration not stated) yielded a TGI (OVCAR-4 ovarian) of over 100 µM, a TGI (SF-539 CNS) of over 100 µM and a TGI (SN12C renal) of over 100 µM. It also gave a TGI (SK-MEL-5 melanoma) of over 100 µM, a TGI (RPMI-8226 leukemia) of over 100 µM and a TGI (SNB-75 CNS) of over 100 µM. It also gave a TGI (SK-MEL-28 melanoma) of over 100 µM, a TGI (UACC-257 melanoma) of over 100 µM and a TGI (HT29 colon) of over 100 µM.
`C=C(C=O)c1c2c(nc3ccccc13)C(=O)c1ccccc1C2=O` showed a TGI (DU-145 prostate) of 0.982 µM, a TGI (SF-539 CNS) of 0.605 µM and a TGI (SN12C renal) of 41.3 µM. For the same compound, the TGI (SK-MEL-5 melanoma) was 0.339 µM and the TGI (SNB-75 CNS) was 2.18 µM.
`CC[C@@]1(O)C(=O)OCc2c1cc1n(c2=O)Cc2c-1nc1ccccc1c2CC[Si](C)(C)C` showed a TGI (DU-145 prostate) of over 100 µM, a TGI (SF-539 CNS) of 3.32 µM and a TGI (SK-MEL-5 melanoma) of under 0.0425 µM. It also gave a TGI (RPMI-8226 leukemia) of 0.834 µM, a TGI (SK-MEL-28 melanoma) of over 100 µM and a TGI (HT29 colon) of over 40.6 µM.
`CC(C)OP(=O)(CN(C)/C(F)=N\C(F)(F)F)OC(C)C` gave a TGI (DU-145 prostate) of over 100 µM, a TGI (SF-539 CNS) of over 100 µM and a TGI (SN12C renal) of over 100 µM. It also gave a TGI (SK-MEL-5 melanoma) of over 100 µM, a TGI (SNB-75 CNS) of over 100 µM and a TGI (SK-MEL-28 melanoma) of over 100 µM. The TGI (UACC-257 melanoma) was over 100 µM and the TGI (HT29 colon) was over 100 µM.
Work on `Cc1nc2c(o1)C(=O)c1ccccc1/C2=N/c1ccccn1` yielded a TGI (OVCAR-4 ovarian) of 28.2 µM, a TGI (SF-539 CNS) of 33.2 µM and a TGI (SN12C renal) of 64.1 µM. It also gave a TGI (SK-MEL-5 melanoma) of 30.4 µM, a TGI (RPMI-8226 leukemia) of over 100 µM and a TGI (SNB-75 CNS) of 20.9 µM. The TGI (SK-MEL-28 melanoma) was 32.8 µM, the TGI (UACC-257 melanoma) was 26.9 µM and the TGI (HT29 colon) was 41.3 µM.
`CC(=O)[O-].CC(=O)[O-].O=C(N/N=C/c1cc(Cl)cc(Cl)c1[OH2+])c1ccncc1.[Co+2]` showed a TGI (SF-539 CNS) of over 100 µM, a TGI (SN12C renal) of over 100 µM and a TGI (SK-MEL-5 melanoma) of over 100 µM. The TGI (RPMI-8226 leukemia) was over 100 µM, the TGI (SNB-75 CNS) was over 100 µM and the TGI (SK-MEL-28 melanoma) was over 100 µM. For the same compound, the TGI (UACC-257 melanoma) was over 100 µM and the TGI (HT29 colon) was over 100 µM.
With `O=C(c1cc(Cl)cc(Cl)c1)N(C(=S)OC12CC3CC(CC(C3)C1)C2)c1ccccc1` the TGI (OVCAR-4 ovarian) was over 100 µM, the TGI (DU-145 prostate) was over 100 µM and the TGI (SF-539 CNS) was over 100 µM. The TGI (SN12C renal) was over 100 µM, the TGI (SK-MEL-5 melanoma) was over 100 µM and the TGI (SNB-75 CNS) was over 100 µM. It also gave a TGI (SK-MEL-28 melanoma) of over 100 µM, a TGI (UACC-257 melanoma) of over 100 µM and a TGI (HT29 colon) of over 100 µM.
Compound `CC(=O)C1=C(N=[N+]=[N-])c2cccc3cccc(c23)C1=O` has a TGI (OVCAR-4 ovarian) of 49.1 µM, a TGI (SF-539 CNS) of 42 µM and a TGI (SN12C renal) of 39.7 µM. It also gave a TGI (SK-MEL-5 melanoma) of 38.1 µM, a TGI (RPMI-8226 leukemia) of 42.8 µM and a TGI (SNB-75 CNS) of 66.9 µM. It also gave a TGI (UACC-257 melanoma) of 43.8 µM and a TGI (HT29 colon) of 39.3 µM.
